Data from PubChem BioAssay (NCI).
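How tested: cells in 96-well plates exposed to compound for 48 hours at five concentrations. The concentration for full growth arrest is given as TGI.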

Legend:
Test in all cases: NCI anticancer screen, dose series, 48 h
[1] = tested on: RXF-631 renal
[2] = tested on: CCRF-CEM leukemia
[3] = tested on: M14 melanoma
[4] = tested on: UO-31 renal
[5] = tested on: U251 CNS
[6] = tested on: IGROV1 ovarian
[7] = tested on: OVCAR-8 ovarian
[8] = tested on: ACHN renal
[9] = tested on: MALME-3M melanoma
[10] = tested on: HCT-116 colon
[11] = tested on: TK-10 renal
[12] = tested on: LOX IMVI melanoma
[13] = tested on: OVCAR-4 ovarian
[14] = tested on: RPMI-8226 leukemia
[15] = tested on: NCI-H226 lung
[16] = tested on: A498 renal
[17] = tested on: HT29 colon
[18] = tested on: SNB-75 CNS
[19] = tested on: HOP-92 NSCLC
[20] = tested on: SNB-78 CNS
[21] = tested on: NCI-H460 lung
[22] = tested on: UACC-62 melanoma
[23] = tested on: HOP-18 NSCLC
[24] = tested on: SF-268 CNS
[25] = tested on: DMS 114 small cell lung
[26] = tested on: MOLT-4 leukemia
[27] = tested on: KM20L2 colon
[28] = tested on: OVCAR-5 ovarian
[29] = tested on: M19-MEL melanoma
[30] = tested on: K-562 leukemia
[31] = tested on: HL-60(TB) leukemia
[32] = tested on: 786-0 renal
[33] = tested on: CAKI-1 renal
[34] = tested on: SN12C renal
[35] = tested on: SW-620 colon
[36] = tested on: LXFL 529 NSCLC
[37] = tested on: SR leukemia
[38] = tested on: SNB-19 CNS
[39] = tested on: HCC-2998 colon
[40] = tested on: COLO 205 colon
[41] = tested on: SK-OV-3 ovarian
[42] = tested on: SF-539 CNS
[43] = tested on: DMS 273 small cell lung
[44] = tested on: SK-MEL-5 melanoma
[45] = tested on: HOP-62 NSCLC
[46] = tested on: A549 NSCLC
[47] = tested on: SF-295 CNS
[48] = tested on: HCT-15 colon
[49] = tested on: RXF 393 renal
[50] = tested on: KM12 colon
[51] = tested on: NCI-H522 lung
[52] = tested on: UACC-257 melanoma
[53] = tested on: SK-MEL-2 melanoma
[54] = tested on: DLD-1 colon
[55] = tested on: SK-MEL-28 melanoma
[56] = tested on: NCI-H23 lung
[57] = tested on: XF 498 CNS
[58] = tested on: EKVX NSCLC
[59] = tested on: OVCAR-3 ovarian

Measured: TGI

COc1cc2c(c(OC)c1OC)CCNC2C1=C(O)COC1=O (stereo not given)
> 100 µM: [1] | [2] | [3] | [4] | [5] | [6] | [7] | [8] | [9] | [10] | [11] | [12] | [13] | [14] | [16] | [17] | [18] | [19] | [20] | [21] | [22] | [23] | [24] | [25] | [26] | [27] | [28] | [29] | [30] | [31] | [32] | [33] | [34] | [35] | [36] | [37] | [38] | [39] | [40] | [41] | [42] | [43] | [44] | [45] | [46] | [47] | [48] | [49] | [50] | [51] | [52] | [53] | [54]
99.5 µM: [15]

CC1(C)C(=NNC(=S)NN)C(C)(C)C1=NNC(=S)NN
> 100 µM: [1] | [2] | [3] | [6] | [7] | [8] | [9] | [11] | [12] | [13] | [14] | [15] | [17] | [18] | [19] | [22] | [55] | [24] | [25] | [27] | [28] | [29] | [30] | [32] | [33] | [34] | [56] | [35] | [38] | [39] | [40] | [41] | [42] | [57] | [44] | [45] | [46] | [58] | [47] | [49] | [51] | [52] | [53] | [54] | [59]

CCCCCCCCNC(=O)SCCCC
43.7 µM: [31]
> 100 µM: [1] | [3] | [5] | [6] | [7] | [8] | [11] | [13] | [16] | [22] | [55] | [23] | [24] | [27] | [28] | [29] | [30] | [32] | [34] | [56] | [35] | [36] | [40] | [41] | [42] | [43] | [46] | [47] | [48] | [50] | [54] | [59]
63.1 µM: [9]
68.8 µM: [18]
69 µM: [2]
82.2 µM: [21]
44.4 µM: [44]
76.7 µM: [51]
58.7 µM: [14]
39.2 µM: [12]
68 µM: [49]
59.4 µM: [17]
65.1 µM: [4]
61.9 µM: [33]
84.9 µM: [26]
56.2 µM: [53]
49 µM: [19]
80.1 µM: [58]
87.9 µM: [38]
37.5 µM: [57]
